Reference: ChEMBL document CHEMBL1156401, “A neutrophil multitarget functional bioassay to detect anti-inflammatory natural products” (J Nat Prod, 2002)
≈ marks a conversion by molar mass, not a printed value.

Columns and labels:
[1] = species on record: Homo sapiens; experiment: Induction of elastase release in human PMNC assessed as increase in p-nitroanilide formation; type: functional
[2] = Antiinflammatory activity against cytochalasin-activated human PMNC assessed as inhibition of platelet activating factor-induced elastase release by p-nitroanilide formation assay; type: functional

Which Activity [1] does the source give for C[C@H]1O[C@@H](O[C@H]2[C@@H](O)C[C@H](O[C@H]3[C@@H](O)C[C@H](O[C@H]4CC[C@@]5(C)[C@H](CC[C@@H]6[C@@H]5CC[C@]5(C)[C@@H](C7=CC(=O)OC7)CC[C@]65O)C4)O[C@@H]3C)O[C@@H]2C)C[C@H](O)[C@@H]1O here?
The Activity was “Dose-dependent effect”.

With C[C@@H]1C(=O)O[C@H]2[C@H](O)[C@@]34[C@H]5C[C@@H](C(C)(C)C)[C@]36[C@@H](OC(=O)[C@@H]6O)O[C@@]4(C(=O)O5)[C@@]12O [GINKOLIDE B] as the compound, how does the IC50 [2] read?
Its IC50 is 72 µg/mL (≈ 170 µM).
